According to patent US20050026959A1, “Ethanol solvate of (-)-cis-2-(2-chloropheny)-5,7-dihydroxy-8-[4R-(3S-hydroxy-1-methyl)piperidinyl]-4H-1benzopyran-4-one” (Aventis Pharma Deutschland GmbH, priority 2000, published 2005):

What was measured:
[1] = Hygroscopicity of the solid form; assay type: physicochemical
Description: Form II is hygroscopic. It can be used in water free form or in a form with a certain water content. The use in a form, which is essentially free from water is preferred.

[2] = system: cyclin dependent kinases (CDKs) including CDK1, CDK2, CDK4, CDK6 and CDK7; details: cdk1/cyclin B; cdk2/cyclin A; cdk2/cyclin E; cdk4/cyclinD; cdk6/cyclin D; cdk7/cyclin H; Int. J. Oncology 9: 1143-1168 (1996); cited from earlier work

Row | SMILES | hygroscopicity [1] | inhibition of cyclin dependent kinases [2]
1 | CN1CC[C@H](c2c(O)cc(O)c3c(=O)cc(-c4ccccc4Cl)oc23)[C@H](O)C1.Cl (relative stereo) [Form II, (−)-cis-2-(2-chlorophenyl)-5,7-dihydroxy-8-[4R-(3S-hydroxy-1-methyl)piperidinyl]-4H-1-benzopyran-4-one hydrochloride] | hygroscopic | 
2 | CN1CC[C@H](c2c(O)cc(O)c3c(=O)cc(-c4ccccc4Cl)oc23)[C@H](O)C1 [Flavopiridol, (−)-cis-2-(2-chlorophenyl)-5,7-dihydroxy-8-[4R-(3S-hydroxyl-1-methyl)piperidinyl]-4H-1-benzopyran-4-one] |  | strong inhibitor
